The subject of data set [1] is G-protein. The data set can be described thus: functional [35S]GTPγS binding, guinea pig brain membrane homogenates. The data set is classed as biochemical. The conditions noted are these: ligand alone. The method, then: (§1) Rats and guinea pigs were decapitated, and their brains were quickly removed. The brains were used for membrane preparation following the procedure reported by Benyhe for binding and [^35S]GTPγS binding experiments, in agreement with the protocol of Zádor et al..
(§2) Homogenization of brains was performed in 30 volumes (v/w) of ice-cold 50 mM Tris-HCl pH 7.4 buffer with a Teflon-glass Braun homogenizer at 1500 rpm. The centrifuge was settled at 18,000 rpm for 20 min at 4 °C, the resulting supernatant discarded, and the pellet taken up in the original volume of Tris-HCl buffer. Incubation of homogenate at 37 °C for 30 min was performed in a shaking water-bath. Five volumes of 50 mM Tris-HCl pH 7.4 buffer were used to suspend the final pellet at −80 °C. For the [^35S]GTPγS binding experiments, the brains were homogenized with a Dounce in 5 volumes (v/w) of ice-cold TEM (Tris-HCl, EGTA, MgCl2) at −80 °C. The protein content of the membrane preparation was determined by the method of Bradford, BSA being used as a standard.
(§3) The functional [^35S]GTPγS binding experiments were performed as previously described. Briefly the membrane homogenates were incubated at 30 °C for 60 min in Tris-EGTA buffer (pH 7.4) composed of 50 mM Tris-HCl, 1 mM EGTA, 3 mM MgCl2, 100 mM NaCl, containing 20 MBq/0.05 cm^3 [^35S]GTPγS (0.05 nM) and increasing concentrations (10^−10 to 10^−5 M) of ligands. The experiments were performed in the presence of excess GDP (30 μM) in a final volume of 1 mL. Total binding was measured in the absence of test compounds, non-specific binding was determined in the presence of 10 μM unlabeled GTPγS. The reaction was terminated by rapid filtration under vacuum and washed three times with 5 mL ice-cold 50 mM Tris-HCl (pH 7.4) buffer through Whatman GF/B glass fibers. The radioactivity of the filters was detected in an UltimaGold^TM MV aqueous scintillation cocktail with a Packard Tricarb 2300TR liquid scintillation counter.
(§4) Experimental data are presented as means ± S.E.M. Sigmoid dose-response curves were fitted with GraphPad Prism 5.0 (GraphPad Prism Software Inc., San Diego, CA, USA). An unpaired t-test with two-tailed p value was performed to determine the significance level. In the competition binding assays, the ‘One site competition’ fitting was used to establish the equilibrium binding affinity (Ki value).
Figure S3. The effect of novel oligopeptides on G-protein activity in [35S]GTPγS binding assays in the absence or presence of the selective MOR antagonist cyprodime (Cyp) and the selective DOR antagonist naltrindole (NTI) in rat brain membrane homogenates (Figure A) and the selective KOR antagonist norbinaltorphine (nor-BNI) in guinea pig brain membrane homogenates (Figure B). […]

The target of data set [2] is G-protein. The data set can be described thus: functional [35S]GTPγS binding, rat brain membrane homogenates. Type of data set: biochemical. The method, then: as §1, §2, §3, §4
[35S]GTPγS binding assay in rat brain membrane homogenates. Figure S2 represents the specific binding of [35S]GTPγS in percentage in presence of increasing concentrations (10-10 - 10^-5 M) of the indicated ligands. “Total” on the x-axis indicates the basal activity of the monitored G-protein, which is measured in the absence of the ligands and represents the total specific binding of [35S]GTPγS. The level of basal activity was defined as 100% and it is presented with a dotted line. Points represent means ± S.E.M. for at least three experiments […]
Figure S3. The effect of novel oligopeptides on G-protein activity in [35S]GTPγS binding assays in the absence or presence of the selective MOR antagonist cyprodime (Cyp) and the selective DOR antagonist naltrindole (NTI) in rat brain membrane homogenates (Figure A) and the selective KOR antagonist norbinaltorphine (nor-BNI) in guinea pig brain membrane homogenates (Figure B). The level of basal activity was defined as 100% and it is presented with a dotted line. Points represent means ± S.E.M. for at least three experiments performed

Data set [3] can be described thus: stability in human plasma. The data set is classed as in vitro ADME. The conditions noted are these: 37 °C. The method, then:
Five microliters of K6 (500 μg in 250 μL of water) were added to 45 μL of fresh human plasma, then incubated at 37 ± 1 °C. Prepared samples were removed at several designated time points and incubation was stopped by adding an equal volume of the sequencing mixture (5% aqueous ZnSO4 solution, MeOH, and ACN; 5:3:2), which precipitated proteins, to achieve a final concentration of 100 μg/mL. The mixture was vortexed and centrifuged at 12,000× g for 5 min, then 20 μL of clear supernatant was directly injected into the HPLC system (Waters model 600 solvent pump and 2996 photodiode array detector, with XBridge BEH 130 C18, 4.6 × 250 mm, 5 μm). The samples were tested in three independents experiments (n = 3) and reported values represent the mean ± standard error (SEM). Data were analysed using simple regression analysis (significant deviation from zero: F1,13 = 171.9, p < 0.0001; Y = −0.9705 × X + 95.98).
Five calibration standards were injected into the HPLC-UV/Vis system. HPLC analyses were performed on a Waters liquid chromatograph equipped with a model 600 solvent pump and a 2996 photodiode array detector, and the mobile phase was degassed directly on-line by using Degassex, mod. DG-4400 (Phenomenex, Torrance, CA, USA). Empower v2.0 Software (Waters Spa, Milford, MA, USA) was used for data acquisition and elaboration. A reversed-phase packing column (XBridge BEH 130 C18, 4.6 × 250 mm, 5 μm; Waters Spa, Milford, MA, USA) was employed for the separation and the column was held at room temperature (22 ± 1 °C). K6 remaining concentrations at different times are reported below. For quantitative analyses, selective detection was performed at 210 nm. Gradient elution mode was performed using a mobile phase containing a […] water-ACN ratio as starting conditions and gradient program as reported. […]
All the sample solutions were previously centrifuged and 20 µL of the supernatant was injected into the HPLC-UV/Vis system. Calibration curves from 2 to 10 μg/mL were calculated by analyzing five non-zero concentration standards prepared in freshly spiked plasma solution in triplicate and extracted. All quantitative analyses were performed at 210 nm. Calibration curves were linear with r2 values always greater than 0.988 (n = 3). In reported chromatographic conditions, the retention times for K6 was 16.45 minutes (± 0.4, n = 20), the substance identity was confirmed by LS-MS analysis.
Time ( minutes) K6 Concentration (µg/mL) K6% of degradation

The next data set deals with NMDA receptor. Put plainly: [3H]MK-801 competition binding, rat brain membrane. The conditions noted are these: read-out: Ki + S.E.M., displacement of [3H]MK-801.

Several values for one entry are separate records, joined by “and”; a condition that tells them apart may be missing. Identical values can stand only once. Where a SMILES comes first, the peptide text is derived from it. [ ]: non-standard residue; d: D form. Kyn = Nc1ccccc1C(=O)C[C@H](N)C(=O)O Some results are limits rather than exact numbers.

On to `C[C@@H](NC(=O)[C@@H](N)Cc1ccc(O)cc1)C(=O)NCC(=O)N[C@@H](Cc1ccccc1)C(=O)N[C@@H](CC(=O)c1ccccc1N)C(N)=O` [Peptide K6] (H-Y[dA]GF[Kyn]-NH2), for which the “Emax + S.E.M., Ligand” value was 139.8 ± 2.3% in the data set on G-protein [1]; 211% and 211.7 ± 3.1% with G-protein [2] (ligand alone, bar graphs Figure S3). Further, the “Potency Log EC50 ± S.E.M.” value on G-protein [2] (dose-response curves) is −5.984 ± 0.054. The “Maximal Stimulation (Efficacy) Emax ± S.E.M.” value in the data set with G-protein [2] (dose-response curves, basal = 100%) was 209.7 ± 3.4%. This compound also showed a K6% of degradation in data set [3] (0 minutes) of 0%. Also, the metabolised at 5 min, 200 μg/mL in data set [3] (fresh human plasma, 5 minutes, read-out: K6% of degradation) came to 7%. Also, the metabolised at 10 min, 200 μg/mL in data set [3] (fresh human plasma, 10 minutes, read-out: K6% of degradation) was determined as 15%. The metabolised at 0.5 h, 200 μg/mL in data set [3] (fresh human plasma, 30 minutes, read-out: K6% of degradation) amounted to 36%. Besides, in data set [3] (fresh human plasma, 60 minutes, read-out: K6% of degradation), the metabolised at 1 h, 200 μg/mL is 56%. For the same compound, the half-life at 200 μg/mL in data set [3] (plasma (fresh), linear regression, read-out: t1/2 in human plasma) worked out at 47 min. Moreover, on NMDA receptor, the Ki is > 10 µM.

Values taken from PMC7072329, “Discovery of Kynurenines Containing Oligopeptides as Potent Opioid Receptor Agonists” (Biomolecules, 2020).
